Assay results published in patent US20160297851A1, “BROAD SPECTRUM […]” (priority 2012, published 2016).
In brackets after ≈: the same amount, converted by molar mass. Read-outs that look alike come from different tables or passages of the source.

What was measured:
[1] = test system: wild type P. aeruginosa PAO1; experiment: microbe, parasite or virus in culture; format: cell-based, Pseudomonas aeruginosa
[2] = test system: wild type S. aureus 8325; experiment: microbe, parasite or virus in culture; format: cell-based, Staphylococcus aureus
[3] = test system: wild type S. epidermidis RP62A; experiment: microbe, parasite or virus in culture; format: cell-based, Staphylococcus epidermidis; details: for MIC: Sensitive strain (SPase without the resistance-conferring Pro)
[4] = test system: human HeLa 229 cells; details: none observed up to the highest concentration examined
[5] = test system: Rhodococcus opacus DSM 1069; experiment: microbe, parasite or virus in culture; format: cell-based
[6] = test system: Corynebacterium efficiens DSM 44549; experiment: microbe, parasite or virus in culture; format: cell-based
[7] = test system: E. coli strains harboring the indicated amino acid at SPase residue 84; experiment: microbe, parasite or virus in culture; format: cell-based; details: Escherichia coli
[8] = test system: Prevotella copris; experiment: microbe, parasite or virus in culture; format: cell-based
[9] = test system: Enterococcus faecalis; experiment: microbe, parasite or virus in culture; format: cell-based
[10] = test system: Lactobacillus acidophilus ATCC 4356; experiment: microbe, parasite or virus in culture; format: cell-based; details: ATCC4356
[11] = test system: Bacillus subtilis 168; experiment: microbe, parasite or virus in culture; format: cell-based
[12] = test system: Klebsiella pneumoniae ATCC 43816; experiment: microbe, parasite or virus in culture; format: cell-based; details: ATCC43816
[13] = test system: lepB(P84L) P. aeruginosa PAO1; experiment: microbe, parasite or virus in culture; format: cell-based, Pseudomonas aeruginosa
[14] = test system: Clostridium perfringens; experiment: microbe, parasite or virus in culture; format: cell-based
[15] = test system: S. epidermidis PAS9002 (SPase S31P); format: cell-based, Staphylococcus epidermidis; details: Ser to Pro mutation at position 31 of SpsIB
[16] = test system: Streptococcus agalactiae COH-1; experiment: microbe, parasite or virus in culture; format: cell-based; details: Streptococcus agalactiae, COH1
[17] = test system: Rhodococcus erythropolis; experiment: microbe, parasite or virus in culture; format: cell-based
[18] = test system: Brevibacillus brevis ATCC 8246; experiment: microbe, parasite or virus in culture; format: cell-based; details: ATCC8246
[19] = test system: E. coli and P. aeruginosa serine mutants; experiment: MIC after permeabilizing with polymyxin B nonapeptide; format: cell-based
[20] = test system: Lactobacillus gasseri ATCC 19992; experiment: microbe, parasite or virus in culture; format: cell-based; details: ATCC19992
[21] = test system: wild type E. coli MG1655; experiment: microbe, parasite or virus in culture; format: cell-based, Escherichia coli
[22] = test system: Staphylococcus haemolyticus; experiment: microbe, parasite or virus in culture; format: cell-based
[23] = biological target: P84S variant of truncated E. coli SPase (Escherichia coli, UniProt P00803, P84S); experiment: Equilibrium binding, arylomycin fluorescence; details: micelles; average of three independent experiments
[24] = test system: lepB(P84L) E. coli MG1655; experiment: microbe, parasite or virus in culture; format: cell-based, Escherichia coli; details: Table 3, P3 position derivatives; unit not given
[25] = biological target: truncated wild type E. coli SPase (Escherichia coli, UniProt P00803); experiment: Equilibrium binding, arylomycin fluorescence; details: micelles; average of three independent experiments
[26] = test system: Streptococcus pneumoniae R800; experiment: microbe, parasite or virus in culture; format: cell-based
[27] = test system: Staphylococcus aureus; format: cell-based; details: several values = heterogeneity within different strains
[28] = biological target: full-length P29S mutant S. aureus SPase (Ser-variant) (Staphylococcus aureus, UniProt P0A070, P29S); experiment: Equilibrium binding, arylomycin fluorescence
[29] = test system: Corynebacterium glutamicum DSM 44475; experiment: microbe, parasite or virus in culture; format: cell-based; details: DSM44475
[30] = test system: Clostridium bolteae; experiment: microbe, parasite or virus in culture; format: cell-based; details: Enterocloster bolteae
[31] = test system: S. aureus COL; experiment: microbe, parasite or virus in culture; format: cell-based; details: Staphylococcus aureus
[32] = test system: Yersinia pestis Kim+6; experiment: microbe, parasite or virus in culture; format: cell-based
[33] = test system: Lactobacillus plantarum ATCC 8014; experiment: microbe, parasite or virus in culture; format: cell-based; details: Lactiplantibacillus plantarum, ATCC8014
[34] = test system: Helicobacter pylori SS1; experiment: microbe, parasite or virus in culture; format: cell-based; details: amount for a 1000-fold decrease in viable cells
[35] = test system: Rhodococcus equi ATCC 6939; experiment: microbe, parasite or virus in culture; format: cell-based; details: Rhodococcus (subgen. Prescottella) equi, ATCC6939
[36] = test system: Lactococcus lactis; experiment: microbe, parasite or virus in culture; format: cell-based; details: several values = different isolates/subspecies
[37] = test system: Clostridium difficile; experiment: microbe, parasite or virus in culture; format: cell-based; details: Clostridioides difficile
[38] = Table 3, P3 position derivatives, unit not given

CCCCCCCCCCCCCCCC(=O)N(C)[C@H](CO)C(=O)N[C@H](C)C(=O)NCC(=O)N(C)[C@@H]1C(=O)N[C@@H](C)C(=O)N[C@H](C(=O)O)Cc2ccc(O)c(c2)-c2cc1ccc2O [Arylomycin C16, arylomycin C16]
MIC ([1]; Pseudomonas aeruginosa, PAO1, Resistant strain (wild type), read-out: MIC): > 64 µg/mL
MIC ([1]; Resistant strain (wild type)): >128 µg/mL
activity in words [2]: no activity
MIC ([2]; Staphylococcus aureus, Resistant strain (wild type), read-out: MIC): > 64 µg/mL
MIC [3]: 0.25 µg/mL (≈ 0.284 µM)
MIC ([3]; listed as arylomycin C16): 0.25 µg/mL (≈ 0.284 µM)
MIC ([3]; Staphylococcus epidermidis, read-out: MIC): 0.5 µg/mL (≈ 0.567 µM)
minimal inhibitory concentration (MIC) [3, 38]: 0.25
concentration with adverse effects on the human cells [4]: > 20000 ng/mL
MIC [5]: 2 µg/mL (≈ 2.27 µM)
MIC ([5]; Rhodococcus opacus, DSM1069, read-out: MIC): 1 µg/mL (≈ 1.13 µM)
MIC [6]: 16 µg/mL (≈ 18.2 µM)
MIC ([7]; 'Phe or His' variant (temperature sensitive)): 2 µg/mL (≈ 2.27 µM)
MIC ([7]; His variant (temperature sensitive)): 4 µg/mL (≈ 4.54 µM)
MIC ([7]; Pro at SPase residue 84): > 256 µg/mL
MIC ([7]; all of the other amino acids at residue 84): ≤ 16 µg/mL
MIC [8]: > 16 µg/mL
MIC [9]: > 64 µg/mL
MIC [10]: > 128 µg/mL
MIC [11]: > 128 µg/mL
MIC [12]: > 128 µg/mL
MIC ([13]; Pseudomonas aeruginosa, PAO1, Sensitive (genetically sensitized) strain, read-out: MIC): 8 µg/mL
minimal inhibitory concentration (MIC) [13, 38]: 4
MIC [14]: > 16 µg/mL
fold elevated MIC compared to the wild type strain [15]: greater than 256 fold
MIC [16]: > 128 µg/mL
MIC [17]: 16 µg/mL (≈ 18.2 µM)
MIC [18]: > 64 µg/mL
fold decrease of MIC on permeabilization [19]: ≤ 4 fold
MIC [20]: > 128 µg/mL
MIC ([21]; Escherichia coli, MG1655, Resistant strain (wild type), read-out: MIC): > 64 µg/mL
MIC ([21]; Resistant strain (wild type)): >128 µg/mL
MIC [22]: 2 µg/mL (≈ 2.27 µM)
Kd [23]: 39 ± 15 nM
minimal inhibitory concentration (MIC) [24]: 2
Kd [25]: 979 ± 69 nM
MIC [26]: 16 µg/mL (≈ 18.2 µM)
MIC ([26]; Streptococcus pneumoniae, R800, read-out: MIC): 8 µg/mL (≈ 9.08 µM)
MIC ([26]; listed as arylomycin A-C16): 8 µg/mL (≈ 9.08 µM)
MIC [27]: 16 to 32 µg/mL
Kd [28]: 130 ± 53 nM
MIC [29]: 2 µg/mL (≈ 2.27 µM)
MIC [30]: > 16 µg/mL
MIC [31]: 12 µg/mL (≈ 13.6 µM)
MIC [32]: 4 µg/mL (≈ 4.54 µM)
MIC [33]: > 128 µg/mL
MIC ([34]; Helicobacter pylori, SS1, read-out: MIC): 4 µg/mL (≈ 4.54 µM)
MIC [34]: 4 µg/mL (≈ 4.54 µM)
MIC [35]: 16 µg/mL (≈ 18.2 µM)
MIC [36]: 16 µg/mL (≈ 18.2 µM)
MIC [37]: > 16 µg/mL
